# What was measured:
# HeLa cells [1] = assay: FL-SRS imaging: intracellular dye concentration from SRS intensity (ISRS=0.1567c); format: cell-based; details: for percentage of high concentration region (>0.5 mM) / ultimate high concentration within the cells: 20 μM; for ultimate high concentration within the cells: covering >99.5% cell area
# From the text: To eliminate the influence of light reflection and scattering on the baseline, SRS intensity ION at 2223 cm^−1 (resonance-on) and IOFF at 2160 cm^−1 (resonance-off) was used to calculate the SRS signal intensity ISRS=ION−IOFF. After subtracting the intrinsic ISRS=0.042 V in pure DMSO (background), a linear relationship between SRS intensity ISRS and the dye concentration c was obtained as ISRS=0.1567c with R^2=0.99944 in the plot shown in FIG. 5B. The analytical detection limit and quantification limit were calculated to be 8.5 μM and 28.4 μM, respectively, indicating the high sensitivity of the SRS system. Further, the SRS spectra of AIE-SRS-Mito were collected at different concentrations in DMSO and no obvious shifts in the peak position was found, indicating the inertness of Raman signal to the concentration change. Due to the inert response of SRS signal to the change of environment, the linear plot of ISRS=0.1567c can act further as a calibration for the intracellular dye concentration by keeping the same signal collecting condition.
# At first, as shown in FIGS. 9A-9D, images of HeLa cells were collected by TPEF and SRS signals, respectively, and the merged image indicated a perfect co-localization of the intracellular distribution of the fluorescence and SRS signals, confirming the dual-modality of the probe. […] Due to the inertness of SRS signal and the linear relationship (ISRS=0.1567 c), the distribution of the dye concentration inside a single cell was further analyzed.
# To examine the influence of intracellular concentration of AIE-SRS-Mito on the cells, attempts were made to increase the amounts of dye in the cells by increasing the incubation time. As shown in FIGS. 11A-11F, with the extension of incubation time, both the TPEF and SRS intensity were increased with a reduced mitochondrial selectivity. […] This can be attributed to the fact that the high concentration of cationic dyes in the mitochondria matrix will cause depolarization and increase the osmotic stress of the mitochondria, consequently leading to cell death as indicated by the results of the MTT assay (FIG. 4E). Similar results were found when increasing the dye concentration (FIGS. 12A-12F).
# To further study acceptable intracellular concentrations of the dye molecules in a cell, the distribution of the dye concentration for cells was plotted. The percentages of high concentration region (>0.5 mM) were calculated to be 16.7%, 23.9% and 30.0% for the cells incubated with 20 μM of AIE-SRS-Mito for 30, 60 and 105 min, respectively. The ultimate high concentration within the cells was estimated to be 1.5, 2.0, 3.0 mM, respectively, covering >99.5% cell area. […] Such a high concentration is enough to cause the quenching of Rhodamine 123 in cells.
# HeLa cells [2] = assay: Cell viability / cytotoxicity evaluated by MTT assay; format: cell-based
# Experimental: For cell culturing, HeLa cells were cultured in the MEM containing 10% FBS and antibiotics (100 units/mL penicillin and 100 µg/mL streptomycin) in a humidity incubator with an atmosphere of 5% CO2 at 37° C. and subcultured every 2-3 days.
# For cell viability evaluated by MTT assay, cells were seeded in 96-well plates at a density of 10000 cells per well. After 24 h incubation, medium in each well was replaced by 100 μL fresh medium containing different concentrations of AIE-SRS-Mito. After 24 hours of treatment, into each well, 10 μL MTT solution (5 mg/mL in PBS) was added. After 4 hours of incubation, the MTT-containing solution was gently removed and replaced with 100 μL of DMSO. After agitation, the absorption of each well at 490 nm was recorded via a plate reader (Perkin-Elmer Victor3™). Each of the experiments were performed for 6 wells parallel. The background of the blank was subtracted and the cell viability of the control group was set to unity.
# Cell cytotoxicity was evaluated by MTT assay (FIG. 4E). HeLa cells were incubated with different concentrations of AIE-SRS-Mito for 24 hours. For example, HeLa cells were incubated with different concentrations of AIE-SRS-Mito for 20 or 40 min and then the medium was replaced with fresh medium, followed by further incubation for 24 hours.
# HeLa cells [3] = assay: SRS imaging in live cells; format: cell-based; details: 5 μM for 60 min, staining much shorter than EdU
# Experimental: SRS imaging was conducted with live HeLa cells to validate a newly built SRS imaging system. The DNA of HeLa cells were pre-labeled with EdU by incubation with 100 μM of EdU in culture medium for 22 hours to ensure sufficient cell-uptake. FIGS. 7A-7D show the distributions of protein, lipid, cytochrome c and DNA in HeLa cells at 2950 cm^−1, 2845 cm^−1, 752 cm^−1, and 2125 cm^−1, respectively.
# Due to the high Raman signal (RIE=6) and mitochondria targeting of AIE-SRS-Mito, AIE-SRS-Mito can serve as a mitochondrial probe for Raman microscopy. In previous reports, cytochrome c, an endogenous protein abundant in the mitochondria membrane, was used for visualization of the mitochondria. However, compared to the unclear and low-contrast image of mitochondria by cytochrome c (752 cm^−1, FIG. 7C), the SRS image of mitochondria in HeLa cells were obtained at 2223 cm^−1 with much more clear reticulum-like structures after incubated with 5 μM of AIE-SRS-Mito for 60 min (FIGS. 8A and 8C). Meanwhile, the nuclei of the Hela cells were prelabeled with EdU and imaged at 2125 cm^−1 (FIGS. 8B and 8D).
# HeLa cells [4] = assay: Fluorescence cell imaging and co-localization with Mitotracker Red FM; format: cell-based; details: 20 min
# Experimental: For cell imaging, HeLa cells were grown overnight on a 35-mm petri dish with a cover slip. The cover slip was mounted to an iron slide with observation window. The staining solution was prepared by adding the dye stock solution (10 mM in DMSO) in to 2 mL of cell medium. Before imaging, the cells were stained with 2 mL of dye solution for a certain time and then imaged under an FL microscope (BX41 upright Microscope) using different combinations of excitation and emission filters for each dye.
# To verify the mitochondrial specificity of AIE-SRS-Mito, cellular imaging was first conducted by incubating HeLa cells with 5 μM AIE-SRS-Mito for 20 min.
# A co-localization experiment was then conducted using AIE-SRS-Mito and a commercial mitochondrial probe, Mitotacker Red (MTR) FM. The excitation wavelength was 330-385 nm for AIE-SRS-Mito and 540-580 nm for MTR. As shown in FIGS. 4A-4D, AIE-SRS-Mito stained the linear reticulum-like structures in cells with high contrast.
# [5] = Behaviour in DMSO-water mixtures (solubility in water); format: physicochemical; details: aggregation/precipitation above 70 vol % water, 10 μM
# From the text: Then AIE-SRS-Mito was studied in DMSO-water mixtures with different water fractions. As shown in FIGS. 1C-1D, the emission peak intensity was decreased with the increase of water fraction from 0 to 70 vol % due the quenching effect of the highly polar water. […] This is a typical AIE phenomenon, as the free intramolecular rotations of the excited molecules were restricted upon aggregation, thus blocking the non-radiative decays and favoring the radiative decay. Only a slight red-shift in peak wavelength was observed and this should be attributed to the increased solution polarity by increasing water fraction. The AIE feature and TICT effect upon excitation were further verified by the theoretical calculations (FIGS. 2A-2C).
structure (smiles),measurement,setting,value
CC[n+]1ccc(-c2ccc(/C(C#N)=C/c3ccc(C#Cc4ccccc4)cc3)cc2)cc1 [AIE-SRS-Mito],dye concentration in mitochondria matrix tolerated by cells,"HeLa cells [1]; HeLa cells, with moderate cell viability",up to 3.0 mM
same,percentage of high concentration region (>0.5 mM),"HeLa cells [1]; HeLa, 30 min",16.7%
same,ultimate high concentration within the cells,"HeLa cells [1]; HeLa, 30 min",1.5 mM
same,percentage of high concentration region (>0.5 mM),"HeLa cells [1]; HeLa, 60 min",23.9%
same,ultimate high concentration within the cells,"HeLa cells [1]; HeLa, 60 min",2.0 mM
same,percentage of high concentration region (>0.5 mM),"HeLa cells [1]; HeLa, 105 min",30.0%
same,ultimate high concentration within the cells,"HeLa cells [1]; HeLa, 105 min",3.0 mM
same,local concentration relative to incubation concentration,"HeLa cells [1]; HeLa, incubation concentration 20 μM, 30 min",75 folds
same,local concentration within a cell,"HeLa cells [1]; single HeLa cell, 20 μM for 30 min, FIG. 10D",up to 1.5 mM
same,IC50,"HeLa cells [2]; Homo sapiens, incubation for 24 hours, concentrations 0 to 40 μM, FIG. 4E, read-out: half maximal inhibitory concentration (IC50) of cell viability",~7 µM
same,cell viability,"HeLa cells [2]; treatment with <40 μM for <40 min, then fresh medium and further 24 hours",over 70%
same,cell permeability,HeLa cells [3],good cell permeability
same,mitochondrial selectivity (overlap with Mitotracker Red FM fluorescence),"HeLa cells [4]; HeLa cells co-stained, 5 μM probe and 100 nM MTR",good mitochondrial selectivity
same,cell permeability,"HeLa cells [4]; HeLa cells, 5 μM, fluorescence imaging, compared to synthetic precursors",good cell permeability
same,solubility in water,[5],poor solubility

# Reference: patent US11320428B2, “Probe for dual-mode bio-imaging” (THE HONG KONG UNIVERSITY OF SCIENCE AND TECHNOLOGY, priority 2017, dated 2022)
